Test results as given in US10457677B2 (priority 2015, dated 2019).
Like-named read-outs stand apart in the source and are kept apart here.

Columns and labels:
PI3K p110δ/p85α (human) = PI3K p110δ/p85α (human) (Homo sapiens (Human), UniProt O00329); assay: PI3K p110δ/p85α (human), non-radioactive assay (HTRF); assay type: biochemical; conditions: for IC50: read-out: IC50 (PI3Kdelta); for ratio IC50 (ATM) vs PI3Kdelta, selectivity with respect to PI3Kdelta: as printed:
Experimental: PI3K p110δ/p85α (Human), Non-radioactive Assay
(§1) PI3K p110δ/p85α (human) was incubated in an assay buffer comprising 10 μM phosphati-dylinositol 4,5-bisphosphate and MgATP (concentration as necessary). The reaction was initiated by addition of MgATP solution. After an incubation time of 30 min at room temperature, the reaction was stopped by addition of a solution consisting of EDTA and biotinylated phosphatidylinositol 3,4,5-trisphosphate. Finally, the detection buffer, consisting of a europium-labelled anti-GST monoclonal antibody, a GST-labelled GRP1 PH domain and streptavidin allophycocyanin, was added. The plate was read out via homogeneous time-resolved fluorescence (HTRF) and the corresponding signals were evaluated via the formula HTRF=10000×(Em665nm/Em620nm).

[1] = target: purified human recombinant ATM (ataxia telangiectasia mutated), full length (Homo sapiens (Human), UniProt Q13315); assay: ATM kinase assay - determination of ATM inhibition (IC50 ATM), TR-FRET; assay type: biochemical
Procedure, shortened: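 Full-length enzyme, expressed in a mammalian cell line, pre-incubated 15 min with inhibitor in 25 mM HEPES pH 8.0, 10 mM Mg(CH3COO)2, 1 mM MnCl2, 0,1% BSA, 0,01% Brij 35, 5 mM DTT. Full-length cmyc-p53 (Sf21-expressed) and ATP then added, 30-35 min at 22° C. EDTA stop; p53 S15 phosphorylation read by TR-FRET antibodies.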

[2] = test system: phosphorylation of CHK2 (phospho-Thr68) in HCT116 cells; assay: Cellular pCHK2 assay: bleomycin-induced phosphorylation of CHK2 (phospho-Thr68), immunofluorescence high-content analysis; assay type: cell-based, human; conditions: Homo sapiens, HCT-116, 4 h, read-out: IC50 (pCHK2)
Text: For the identification of substances which inhibit the phosphorylation of the protein kinase CHK2 at the amino acid threonine 68, an immunofluorescence-based “high content” analysis assay was used in HCT116 cells.
In vitro cell-based immunofluorescence assay for the identification of inhibitors of bleomycin-induced phosphorylation of CHK2 (phospho-Thr68) in the human colon carcinoma cell line HCT116:
HCT116 cells are sown out in a defined cell density in 384-well plates in culture medium (DMEM high glucose, 2 mM GlutaMax, 1 mM Na pyruvate, 10% FCS) and incubated overnight at 37° C. and 10% of CO2. On the following day, the test substances are added in a defined concentration range (1 nM to 30 μM) in combination with 10 μM bleomycin, where the concentration of the solvent DMSO is kept constant at 0.5%. […] Parallel staining of DNA with propidium iodide enables determination of the cell count. The pCHK2 signal is detected using a high-content imager (Molecular Devices IMX Ultra) and automatic image analysis using the MetaXpress software belonging to the instrument. The number of cell nuclei which have a pCHK2 signal above a defined background is determined.

mTOR (human) = mTOR (human) (Homo sapiens (Human), UniProt P42345); assay: mTOR (human) kinase assay, [γ-33P-ATP] filter assay; assay type: biochemical
Experimental: Furthermore, the effect, in particular inhibition, of other kinases and thus the selectivity of the compounds according to the invention can be determined with the aid of the following assay:
mTOR (human) was incubated with 50 mM HEPES pH 7.5, 1 mM EGTA, 0.01% Tween 20, 2 mg/ml of the substrate, 3 mM MnCl2 and [γ-^33P-ATP] (specific activity approximately 500 cpm/pmol, concentration as necessary). The reaction was initiated by addition of MgATP solution. After incubation at room temperature for 40 minutes, the reaction was stopped by addition of 3% phosphoric acid. 10 μl of the reaction solution were then transferred dropwise onto a P30 filtermat and washed three times for 5 min in 75 mM phosphoric acid and once in methanol, dried and evaluated by means of liquid scintillation counting.

PI3K (p120γ) (human) = PI3K (p120γ) (human) (Homo sapiens (Human), UniProt P48736); assay: PI3K (p120γ) (human), non-radioactive assay (HTRF); assay type: biochemical; conditions: for IC50: read-out: IC50 (PI3Kgamma); for ratio IC50 (ATM) vs PI3Kgamma, selectivity with respect to PI3Kgamma: as printed:
Experimental: PI3K (p120γ) (Human), Non-radioactive Assay
as §1, with “(p120γ)” for “p110δ/p85α”, “HTRF=10000×(Em665nm/Em620nm). • MgATP=magnesium 5′-O—[hydroxy({[(hydroxyphosphinato)oxy]phosphinato}oxy)phosphoryl]adenosine • MgCl2=magnesium dichloride • EGTA=ethylene glycol bis(aminoethyl ether) N,N,N′,N′-tetraacetic acid • Tween 20=polysorbate 20 Medicament/pharmaceutical Composition” for “HTRF=10000×(Em665nm/Em620nm).”

PI3K p110α/p85α (human) = PI3K p110α/p85α (human) (Homo sapiens (Human), UniProt P42336); assay: PI3K p110α/p85α (human), non-radioactive assay (HTRF); assay type: biochemical; conditions: for IC50: read-out: IC50 (PI3Kalpha); for ratio IC50 (ATM) vs PI3Kalpha, selectivity with respect to PI3Kalpha: as printed:
Experimental: PI3K p110α/p85α (Human), Non-radioactive Assay
as §1, with “p110α/p85α” for “p110δ/p85α”, “After” for “After an”, “incubation” for “incubation time of 30 min”, “temperature for 40 minutes,” for “temperature,”

Chain of PI3K p110α/p85α (human) (P42336 whole entry): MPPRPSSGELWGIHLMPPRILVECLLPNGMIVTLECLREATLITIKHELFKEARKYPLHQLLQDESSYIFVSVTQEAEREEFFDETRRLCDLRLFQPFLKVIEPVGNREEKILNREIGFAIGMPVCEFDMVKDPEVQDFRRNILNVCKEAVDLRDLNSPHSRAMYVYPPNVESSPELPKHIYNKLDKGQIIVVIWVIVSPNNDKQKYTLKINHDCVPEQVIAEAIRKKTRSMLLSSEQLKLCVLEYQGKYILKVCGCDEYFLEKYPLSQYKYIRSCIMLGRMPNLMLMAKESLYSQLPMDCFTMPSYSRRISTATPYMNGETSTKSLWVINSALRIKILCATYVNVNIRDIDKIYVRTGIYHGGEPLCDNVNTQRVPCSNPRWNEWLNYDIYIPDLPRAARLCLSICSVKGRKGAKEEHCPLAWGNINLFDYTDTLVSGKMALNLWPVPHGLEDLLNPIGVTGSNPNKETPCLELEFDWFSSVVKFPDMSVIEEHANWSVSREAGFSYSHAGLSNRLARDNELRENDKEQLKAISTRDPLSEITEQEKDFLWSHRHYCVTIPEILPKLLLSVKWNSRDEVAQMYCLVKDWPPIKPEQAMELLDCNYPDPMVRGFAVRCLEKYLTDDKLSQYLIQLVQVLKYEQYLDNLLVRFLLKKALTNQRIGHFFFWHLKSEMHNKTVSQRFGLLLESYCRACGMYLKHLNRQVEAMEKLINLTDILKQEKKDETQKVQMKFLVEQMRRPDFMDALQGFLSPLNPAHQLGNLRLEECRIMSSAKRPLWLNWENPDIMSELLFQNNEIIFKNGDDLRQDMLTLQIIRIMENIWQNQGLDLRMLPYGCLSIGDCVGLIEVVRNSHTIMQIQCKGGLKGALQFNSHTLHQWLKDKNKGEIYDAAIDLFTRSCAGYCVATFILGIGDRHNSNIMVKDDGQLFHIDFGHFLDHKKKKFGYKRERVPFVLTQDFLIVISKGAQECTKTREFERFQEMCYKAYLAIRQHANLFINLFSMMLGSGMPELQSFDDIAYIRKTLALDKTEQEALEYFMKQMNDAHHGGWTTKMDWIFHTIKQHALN
Chain of PI3K p110α/p85α (human) (P27986 whole entry partner): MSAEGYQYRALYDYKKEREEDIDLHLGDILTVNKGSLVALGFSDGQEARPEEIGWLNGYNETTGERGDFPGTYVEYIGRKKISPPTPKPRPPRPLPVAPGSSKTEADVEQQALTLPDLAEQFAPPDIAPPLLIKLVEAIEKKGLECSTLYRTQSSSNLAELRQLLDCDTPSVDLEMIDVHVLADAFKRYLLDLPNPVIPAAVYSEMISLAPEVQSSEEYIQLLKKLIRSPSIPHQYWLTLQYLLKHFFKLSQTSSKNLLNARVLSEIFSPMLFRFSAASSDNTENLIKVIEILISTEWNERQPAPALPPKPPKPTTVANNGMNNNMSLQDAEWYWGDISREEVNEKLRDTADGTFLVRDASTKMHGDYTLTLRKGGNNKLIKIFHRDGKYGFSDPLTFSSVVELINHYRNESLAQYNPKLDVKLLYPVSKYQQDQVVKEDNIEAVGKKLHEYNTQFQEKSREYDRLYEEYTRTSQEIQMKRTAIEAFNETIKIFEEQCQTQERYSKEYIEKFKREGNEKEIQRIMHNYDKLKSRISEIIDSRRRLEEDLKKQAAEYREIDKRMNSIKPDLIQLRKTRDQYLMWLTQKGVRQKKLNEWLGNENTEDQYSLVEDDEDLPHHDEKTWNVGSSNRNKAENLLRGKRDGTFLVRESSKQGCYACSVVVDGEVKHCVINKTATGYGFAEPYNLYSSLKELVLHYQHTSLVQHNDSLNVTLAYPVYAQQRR
Chain of purified human recombinant ATM (ataxia telangiectasia mutated), full length (Q13315 whole entry, change not shown): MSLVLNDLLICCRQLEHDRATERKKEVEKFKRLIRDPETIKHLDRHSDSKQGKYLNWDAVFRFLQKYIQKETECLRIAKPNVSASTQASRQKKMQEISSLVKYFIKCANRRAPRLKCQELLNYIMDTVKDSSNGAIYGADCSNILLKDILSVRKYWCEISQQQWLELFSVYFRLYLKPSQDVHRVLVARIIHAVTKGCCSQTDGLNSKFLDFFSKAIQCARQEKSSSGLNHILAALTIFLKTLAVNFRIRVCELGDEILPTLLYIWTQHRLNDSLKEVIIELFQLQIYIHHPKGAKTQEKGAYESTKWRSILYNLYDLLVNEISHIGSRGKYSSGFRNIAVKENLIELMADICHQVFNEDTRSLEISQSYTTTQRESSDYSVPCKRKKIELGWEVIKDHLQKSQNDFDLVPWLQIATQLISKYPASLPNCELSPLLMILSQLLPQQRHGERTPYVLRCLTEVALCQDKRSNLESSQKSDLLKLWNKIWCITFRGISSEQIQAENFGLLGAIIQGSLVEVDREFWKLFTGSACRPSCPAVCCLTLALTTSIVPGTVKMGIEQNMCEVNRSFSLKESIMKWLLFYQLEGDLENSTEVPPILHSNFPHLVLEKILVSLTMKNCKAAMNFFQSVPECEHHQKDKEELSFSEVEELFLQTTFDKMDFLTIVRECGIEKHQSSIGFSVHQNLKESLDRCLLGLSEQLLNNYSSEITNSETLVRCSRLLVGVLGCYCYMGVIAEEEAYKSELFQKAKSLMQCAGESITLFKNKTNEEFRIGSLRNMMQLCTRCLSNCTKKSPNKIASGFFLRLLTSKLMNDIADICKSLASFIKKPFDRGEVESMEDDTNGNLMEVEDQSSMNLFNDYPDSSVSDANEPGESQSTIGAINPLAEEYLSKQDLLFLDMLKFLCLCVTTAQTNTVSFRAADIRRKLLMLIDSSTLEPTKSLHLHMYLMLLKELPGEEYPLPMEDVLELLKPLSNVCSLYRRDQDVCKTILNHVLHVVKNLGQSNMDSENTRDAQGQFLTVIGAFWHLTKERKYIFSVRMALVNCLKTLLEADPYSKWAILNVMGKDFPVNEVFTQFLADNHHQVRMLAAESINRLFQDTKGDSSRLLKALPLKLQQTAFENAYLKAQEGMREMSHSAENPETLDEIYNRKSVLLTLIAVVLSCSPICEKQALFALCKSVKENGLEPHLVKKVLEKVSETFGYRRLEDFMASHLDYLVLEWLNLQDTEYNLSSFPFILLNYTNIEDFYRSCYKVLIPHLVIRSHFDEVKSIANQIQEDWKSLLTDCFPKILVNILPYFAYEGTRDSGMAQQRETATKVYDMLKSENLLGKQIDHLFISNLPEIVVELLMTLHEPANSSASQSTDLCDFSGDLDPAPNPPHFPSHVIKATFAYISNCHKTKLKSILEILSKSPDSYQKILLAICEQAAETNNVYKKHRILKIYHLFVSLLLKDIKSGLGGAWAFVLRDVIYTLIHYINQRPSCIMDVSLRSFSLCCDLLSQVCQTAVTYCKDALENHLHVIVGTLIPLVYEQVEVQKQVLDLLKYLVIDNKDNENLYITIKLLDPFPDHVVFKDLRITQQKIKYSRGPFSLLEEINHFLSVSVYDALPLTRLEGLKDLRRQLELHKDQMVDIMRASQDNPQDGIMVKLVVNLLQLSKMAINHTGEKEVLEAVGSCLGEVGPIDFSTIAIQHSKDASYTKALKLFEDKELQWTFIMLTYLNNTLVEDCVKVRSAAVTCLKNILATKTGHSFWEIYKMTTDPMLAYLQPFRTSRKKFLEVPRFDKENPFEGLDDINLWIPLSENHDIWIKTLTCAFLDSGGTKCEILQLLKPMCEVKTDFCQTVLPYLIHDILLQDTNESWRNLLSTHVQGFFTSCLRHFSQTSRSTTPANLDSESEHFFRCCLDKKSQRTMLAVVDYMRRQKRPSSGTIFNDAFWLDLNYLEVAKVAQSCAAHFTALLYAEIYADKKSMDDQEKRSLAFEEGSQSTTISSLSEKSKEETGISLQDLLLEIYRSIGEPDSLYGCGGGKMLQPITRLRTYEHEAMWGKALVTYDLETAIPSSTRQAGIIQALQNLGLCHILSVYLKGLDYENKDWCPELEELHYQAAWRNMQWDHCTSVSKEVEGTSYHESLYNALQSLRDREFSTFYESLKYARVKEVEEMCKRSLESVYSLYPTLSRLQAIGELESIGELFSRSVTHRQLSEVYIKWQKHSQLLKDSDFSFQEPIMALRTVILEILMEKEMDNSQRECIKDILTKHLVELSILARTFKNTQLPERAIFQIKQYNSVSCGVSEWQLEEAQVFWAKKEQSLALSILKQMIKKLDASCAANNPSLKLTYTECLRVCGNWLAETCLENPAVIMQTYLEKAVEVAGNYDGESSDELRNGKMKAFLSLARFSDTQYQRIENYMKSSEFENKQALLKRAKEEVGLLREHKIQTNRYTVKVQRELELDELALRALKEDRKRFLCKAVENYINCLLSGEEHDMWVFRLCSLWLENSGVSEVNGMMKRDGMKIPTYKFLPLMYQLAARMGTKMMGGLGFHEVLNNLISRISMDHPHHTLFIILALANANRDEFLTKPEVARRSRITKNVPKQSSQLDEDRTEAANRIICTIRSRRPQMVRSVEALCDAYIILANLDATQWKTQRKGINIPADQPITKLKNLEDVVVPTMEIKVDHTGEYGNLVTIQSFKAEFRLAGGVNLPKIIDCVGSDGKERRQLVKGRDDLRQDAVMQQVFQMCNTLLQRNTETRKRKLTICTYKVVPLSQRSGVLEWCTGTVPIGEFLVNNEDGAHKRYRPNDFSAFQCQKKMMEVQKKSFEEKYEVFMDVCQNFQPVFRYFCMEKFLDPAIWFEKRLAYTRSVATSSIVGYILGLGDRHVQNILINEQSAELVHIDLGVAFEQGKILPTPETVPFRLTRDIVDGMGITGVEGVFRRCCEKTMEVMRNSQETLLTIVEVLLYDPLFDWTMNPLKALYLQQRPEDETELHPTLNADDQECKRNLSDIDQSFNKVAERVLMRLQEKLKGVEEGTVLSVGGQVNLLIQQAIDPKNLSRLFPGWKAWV

Row | Structure (SMILES) | IC50 (PI3K p110δ/p85α (human)) | IC50 [1] | IC50 ([1]; 10 μM ATP, substrate p53) | IC50 [2] | IC50 (mTOR (human)) | IC50 (PI3K (p120γ) (human)) | IC50 (PI3K p110α/p85α (human)) | ratio IC50 (ATM) vs PI3Kdelta, selectivity with respect to PI3Kdelta (PI3K p110δ/p85α (human)) | ratio IC50 (ATM) vs PI3Kgamma, selectivity with respect to PI3Kgamma (PI3K (p120γ) (human)) | ratio IC50 (ATM) vs PI3Kalpha, selectivity with respect to PI3Kalpha (PI3K p110α/p85α (human))
1 | COc1cc2ncc3c(c2cc1-c1cn[nH]c1)n(-c1ccncc1C)c(=O)n3C [Compound Example 19, 7-Methoxy-3-methyl-1-(3-methylpyridin-4-yl)-8-(1H-pyrazol-4-yl)-1,3-dihydro-imidazo[4,5-c]quinolin-2-one] | > 30000 nM | < 10 nM | < 10 nM | < 200 nM | > 5000 nM | > 30000 nM | > 30000 nM |  |  | 
2 | COc1cc2ncc3c(c2cc1-c1cnn(C)c1)n(-c1c(F)cncc1F)c(=O)n3C [Compound Example 22, 1-(3,5-Difluoropyridin-4-yl)-7-methoxy-3-methyl-8-(1-methyl-1H-pyrazol-4-yl)-1,3-dihydroimidazo[4,5-c] quinolin-2-one] | > 30000 nM | < 1 nM | < 1 nM | < 200 nM | > 30000 nM | > 30000 nM | > 30000 nM |  |  | 
3 | CCn1cc(-c2cc3c(cc2OC)ncc2c3n(-c3c(F)cncc3F)c(=O)n2C)cn1 [Compound Example 26, 1-(3,5-Difluoropyridin-4-yl)-8-(1-ethyl-1H-pyrazol-4-yl)-7-methoxy-3-methyl-1,3-dihydroimidazo[4,5-c] quinolin-2-one] | > 30000 nM | < 1 nM | < 1 nM | < 200 nM | > 30000 nM | > 30000 nM | > 30000 nM |  |  | 
4 | COc1cc2ncc3c(c2cc1-c1cn[nH]c1)n(-c1ccncc1OC)c(=O)n3C [Compound Example 32, 7-Methoxy-1-(3-methoxy-pyridin-4-yl)-3-methyl-8-(1H-pyrazol-4-yl)-1,3-dihydroimidazo[4,5-c]-quinolin-2-one] | > 30000 nM | < 10 nM | < 10 nM | < 200 nM | > 10000 nM | > 30000 nM | > 30000 nM |  |  | 
5 | COc1cc2ncc3c(c2cc1-c1cn(C)nc1C)n(-c1c(C)cncc1F)c(=O)n3C [Compound Example 39, 8-(1,3-Dimethyl-1H-pyrazol-4-yl)-1-(3-fluoro-5-methyl-pyridin-4-yl)-7-methoxy-3-methyl-1,3-dihydroimidazo-[4,5-c]quinolin-2-one] | > 30000 nM | < 1 nM | < 1 nM | 200 to 1000 nM | > 30000 nM | > 30000 nM | > 30000 nM |  |  | 
6 | CCc1cncc(C)c1-n1c(=O)n(C)c2cnc3cc(OC)c(-c4cnn(C)c4)cc3c21 [Compound Example 54, 1-(3-Ethyl-5-methylpyridin-4-yl)-7-methoxy-3-methyl-8-(1-methyl-1H-pyrazol-4-yl)-1,3-dihydroimidazo[4,5-c]-quinolin-2-one] | > 30000 nM | < 10 nM | < 10 nM | 200 to 1000 nM | > 30000 nM | > 30000 nM | > 30000 nM |  |  | 
7 | CCc1cncc(C)c1-n1c(=O)n(C)c2cnc3cc(OC)c(-c4cnn(CC)c4)cc3c21 [compound 61, 1-(3-Ethyl-5-methylpyridin-4-yl)-8-(1-ethyl-1H-pyrazol-4-yl)-7-methoxy-3-methyl-1,3-dihydroimidazo[4,5-c] quinolin-2-one] | > 30000 nM | < 10 nM | < 10 nM | 1000 to 2000 nM | > 30000 nM |  | > 30000 nM |  |  | 
8 | COc1cnc(-n2c(=O)n(C)c3cnc4cc(OC)c(-c5c[nH]nc5C)cc4c32)c(F)c1 [compound 122, 1-(3-Fluoro-5-methoxy-pyridin-2-yl)-7-methoxy-3-methyl-8-(3-methyl-1H-pyrazol-4-yl)-1,3-dihydro-imidazo[4,5-c] quinolin-2-one] |  |  | < 1 nM | < 200 nM |  |  |  | at least 2000 times | at least 2000 times | at least 2000 times
9 | COc1cc2ncc3c(c2cc1-c1cnn(C)c1)n(-c1ncc(N2CCNCC2)cc1F)c(=O)n3C [compound 123, 1-(3-Fluoro-5-piperazin-1-yl-pyridin-2-yl)-7-methoxy-3-methyl-8-(1-methyl-1H-pyrazol-4-yl)-1,3-dihydro-imidazo[4,5-c]quinolin-2-one] |  |  | < 10 nM | 200 to 1000 nM |  |  |  | at least 2000 times | at least 2000 times | at least 2000 times
10 | CCc1cncc(F)c1-n1c(=O)n(C)c2cnc3cc(OC)c(-c4cn(C)nn4)cc3c21 [compound 126, 1-(3-Ethyl-5-fluoropyridin-4-yl)-7-methoxy-3-methyl-8-(1-methyl-1H-1,2,3-triazol-4-yl)-1,3-dihydroimidazo-[4,5-c] quinolin-2-one] |  |  | < 10 nM | 200 to 1000 nM |  |  |  | at least 2000 times | at least 2000 times | at least 2000 times
11 | COc1cc2ncc3c(c2cc1-c1cnn(C)c1)n(-c1ncc(OC2CNC2)cc1F)c(=O)n3C [compound 205, 1-[5-(Azetidin-3-yloxy)-3-fluoropyridin-2-yl]-7-methoxy-3-methyl-8-(1-methyl-1H-pyrazol-4-yl)-1,3-dihydroimidazo[4,5-c]-quinolin-2-one] |  |  | < 1 nM | 200 to 1000 nM |  |  |  | at least 2000 times | at least 2000 times | at least 2000 times
